Source: publication PMC8575619, “Cytotoxic and Antifungal Amides Derived from Ferulic Acid: Molecular Docking and Mechanism of Action” (BioMed Research International, 2021)
Values after ≈ are worked out from the molar mass of the structure shown. Values joined by “and” are separate entries in the source; they are usually repeats but may differ in a detail not shown here. Equal values may be shown once. Read-outs that look alike come from different tables or passages of the source.

What was measured:
[1] = test system: Candida tropicalis CBS 94; experiment: Minimum fungicide concentration (MFC); type: cell-based
Method: (§1) Antifungal activity evaluations were performed using references strains of Candida spp., obtained from the Centraalbureau voor Schimmelcultures (CBS, Ultrecht, Netherlands): Candida albicans CBS 562, Candida tropicalis CBS 94, and Candida krusei CBS 573. Nystatin, Tween 80%, DMSO, caspofungin diacetate, and ergosterol were obtained from Sigma-Aldrich® (St. Louis, MO, EUA) and sorbitol (D-sorbitol anhydrous) from INLAB® (São Paulo, Brazil). All assays were performed in triplicate in three independent experiments. The culture medium used for maintenance of the microorganisms was Agar Sabouraud Dextrose (ASD). Inoculants were adjusted to a final concentration of 2.5 × 10^3 CFU/mL (Clinical and Laboratory Standards Institute, 2002). […]
(§2) The minimum fungicide concentration (MFC) of the compounds was obtained after the interpretation of the MIC. Three (3) aliquots of 30 μL of supernatant were removed from the wells (where complete inhibition of fungal growth was analyzed) and placed in Petri dishes containing 15 mL of agar Sabouraud dextrose. The plates were incubated at 35 ± 2°C for 24 h for visual counting of colony forming units. To determine whether the compounds had fungistatic (MFC/MIC ≥ 4) or fungicidal (MFC/MIC < 4) activity, the MFC/MIC ratio was calculated.

[2] = test system: Candida albicans CBS 562; experiment: Minimum fungicide concentration (MFC); type: cell-based
Method: as §1, §2

[3] = test system: Candida krusei CBS 573; experiment: Minimum fungicide concentration (MFC); type: cell-based
Method: as §1, §2

[4] = test system: C. albicans; experiment: Ergosterol test (plasma membrane mechanism), microdilution; type: cell-based, Candida albicans; conditions: Candida albicans
Method: (2) Ergosterol Test. The test of the compounds was performed using the microdilution technique, as previously described, in the presence of exogenous ergosterol at 400 μg/mL. Nystatin was used as positive control. The plates were incubated at 35 ± 2°C, and readings were taken at 24 and 48 h.

[5] = test system: MRC5; experiment: Cytotoxicity assay, alamar blue test (healthy cell line); type: cell-based, human; conditions: Homo sapiens, MRC5, 72 h, value (95% confidence interval)
Method: (§3) HepG2 cells (human hepatocellular carcinoma), HCT116 (human colon carcinoma), HL-60 (human promyelocytic leukemia), and MRC5 (human lung fibroblast) obtained from the ATCC (Manassas, VA, USA) were used. Cells were cultured in cell culture bottles (75 cm 3, 250 mL volume), and media used were RPMI 1640 and supplemented with 10% fetal bovine serum. Cells were maintained in incubators with 5% CO2 atmosphere at 37°C. Cellular growth was monitored daily with the use of an inversion microscope. The medium was changed whenever cell growth reached the necessary confluence for nutrient renewal. For the maintenance of adhered cells, trypsin (0.25%) was used for the cells to detach from the walls of the bottles.
(§4) To assess the cytotoxicity of the substances, the alamar blue test was performed after 72 h of exposure with the test substances. Alamar blue, known as resazurin [62], is a fluorescent/colorimetric indicator with redox properties. The reduction in alamar blue reflects cell proliferation. This was initially used to indicate cell growth and/or viability in monitoring lymphocyte proliferation and currently has several applications. Initially, cells were plated in 96-well plates (100 μL/well of a solution of 0.3 × 10^6 cells/mL for cells in suspension and 0.7 × 10^5 cells/mL for adhered cells). After 24 h of incubation, the test substances dissolved in DMSO were added to each well and incubated for 72 h. Doxorubicin was used as a positive control. The negative control received the same amount of DMSO. Four hours before the end of the incubation period, 20 μL of the stock solution (0.312 mg/mL) of alamar blue (resazurin) was added to each well. Absorbances were measured at wavelengths of 570 nm (reduced) and 600 nm (oxidized) using a plate reader.

[6] = test system: C. albicans CBS 562; experiment: Sorbitol assay (cell wall mechanism), microdilution; type: cell-based, Candida albicans; conditions: Candida albicans, CBS562, C. albicans CBS 562
Method: (1) Sorbitol Assay. The microdilution technique was performed in the presence of sorbitol (D-sorbitol, anhydrous) (INLAB laboratory), to determine the mode of action of the compounds on the cell wall of C. albicans CBS 562. For this test, the inoculum was prepared with sorbitol to a final concentration of 0.8 M. The plates were incubated at 35 ± 2°C, and readings were taken 24 h and 48 h after incubation. Caspofungin was used as positive control at an initial concentration of 5 mg/mL [68–70].

[7] = test system: HepG2 cells; experiment: Cytotoxicity assay, alamar blue test; type: cell-based, human; conditions: Homo sapiens, HepG2, 72 h, value (95% confidence interval)
Method: as §3, §4

[8] = test system: HL-60; experiment: Cytotoxicity assay, alamar blue test; type: cell-based, human; conditions: Homo sapiens, HL-60, 72 h, value (95% confidence interval), read-out: IC50 HL60
Method: as §3, §4

[9] = test system: HCT116; experiment: Cytotoxicity assay, alamar blue test; type: cell-based, human; conditions: Homo sapiens, HCT-116, 72 h, value (95% confidence interval)
Method: as §3, §4

[10] = test system: Candida tropicalis CBS 94; experiment: MIC by broth microdilution; type: cell-based; conditions: CBS94, 24 h, N.A.: no activity, read-out: MIC C. tropicalis CBS 94
Method: as §1
(§5) MIC was determined by the microdilution technique, as previously described by the adapted Clinical and Laboratory Standards Institute (CLSI, 2002) method. The compounds were subjected to the microdilution technique in 96-well plates, with U bottom. The samples were dissolved with DMSO and sterile distilled water (up to 1.0 mL). Through serial dilutions, concentrations of the evaluated compounds ranging from 1000 μg/mL to 7.8 μg/mL. The culture sterility medium, the evaluated substances, and the microbial growth were carried out in parallel. The plates were closed and subjected to a temperature of 35 ± 2°C for 24 h. 1% TTC (2,3,5-triphenyl tetrazolium chloride, Sigma-Aldrich®, St. Louis, MO, EUA) was added to each well to confirm the presence of viable microorganisms. MIC was defined as the lowest concentration of the test substance that inhibits visible microbial growth.

[11] = test system: Candida albicans CBS 562; experiment: MIC by broth microdilution; type: cell-based; conditions: Candida albicans, CBS562, 24 h, N.A.: no activity, read-out: MIC C. albicans CBS 562
Method: as §1, §5

[12] = test system: Candida krusei CBS 573; experiment: MIC by broth microdilution; type: cell-based; conditions: Pichia kudriavzevii, CBS573, 24 h, N.A.: no activity, read-out: MIC C. krusei CBS 573
Method: as §1, §5

[13] = test system: Candida strains (Candida albicans, C. tropicalis, and C. krusei); experiment: Antifungal evaluation (MIC/MFC), statements for all Candida strains; type: cell-based, Candida spp.; conditions: Candida strains; read-out: bioactivity category by MIC
Method: The antifungal activity (Table 2) of the ten amides was assessed via the minimum inhibitory concentration (MIC) which was determined using the microdilution methods against three species of Candida strains (Candida albicans, C. tropicalis, and C. krusei).
as §1, §5
as §2, with “units.” for “units. To determine whether the compounds had fungistatic (MFC/MIC ≥ 4) or fungicidal (MFC/MIC < 4) activity, the MFC/MIC ratio was calculated.”

[14] = ≥ 4 fungistatic or <4 fungicide

COc1cc(C=CC(=O)NCc2ccc3c(c2)OCO3)ccc1O [Compound 11]
MFC ([1]; Candida tropicalis, CBS94, N.A.: no activity, read-out: MFC C. tropicalis CBS 94): 500 µg/mL and 1520 µM | MIC/MFC reason C. tropicalis CBS 94 [1, 14]: 1 | MFC ([2]; Candida albicans, CBS562, N.A.: no activity, read-out: MFC C. albicans CBS 562): 125 µg/mL and 380 µM | MIC/MFC reason C. albicans CBS 562 [2, 14]: 2 | MFC ([3]; Pichia kudriavzevii, CBS573, N.A.: no activity, read-out: MFC C. krusei CBS 573): 62.5 µg/mL and 190 µM | MIC/MFC reason C. krusei CBS 573 [3, 14]: 1 | MIC ([4]; absence of ergosterol, read-out: MIC Without ergosterol): 62.2 µg/mL (≈ 190 µM) | MIC ([4]; exogenous ergosterol at 400 μg/mL, read-out: MIC With ergosterol): 62.2 µg/mL (≈ 190 µM) | IC50 [5]: > 25 µg/mL and > 76.4 µM | MIC ([6]; absence of sorbitol, read-out: MIC Without sorbitol): 15.6 µg/mL (≈ 47.7 µM) | MIC ([6]; sorbitol 0.8 M, read-out: MIC With sorbitol): > 1000 µg/mL | IC50 [7]: > 25 µg/mL and > 76.4 µM | IC50 [8]: 18.8 µg/mL and 57.4 µM | IC50 [9]: > 25 µg/mL and > 76.4 µM | melting point: 172 to 175 °C | MIC [10]: 500 µg/mL (≈ 1530 µM) | MIC [11]: 62.5 µg/mL and 190 µM | MIC [12]: 62.5 µg/mL (≈ 191 µM) | MIC [13]: 26 to 125 µg/mL (≈ 79.4 to 382 µM)
